The results in this text go back to PubChem BioAssay (NCI).

Molecules are shown by their SMILES. Values joined by “and” are separate entries in the source; they are usually repeats but may differ in a detail not shown here. Identical values can stand only once.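 How tested: cells in 96-well plates exposed to compound for 48 hours at five concentrations. GI50 = concentration required for 50% inhibition of growth. TGI: concentration producing complete growth inhibition.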

Test systems include HOP-62 NSCLC; HT29 colon; IGROV1 ovarian; KM12 colon; NCI-H226 lung; NCI/ADR-RES ovarian; SR leukemia; TK-10 renal; UACC-62 melanoma; UO-31 renal.
Assay in all cases: NCI-60 cell line screen, 48 h

`Cn1c(=O)c2c(nc(C(=N)SCC(=O)O)n2C)n(C)c1=O`: the TGI in the experiment on HOP-62 NSCLC, in the experiment on HT29 colon, in the experiment on IGROV1 ovarian, in the experiment with KM12 colon, in the experiment with NCI-H226 lung and in the experiment with NCI/ADR-RES ovarian was > 100 µM in each case. Besides, the TGI in the experiment on SR leukemia was 80.2 µM; in the experiment on TK-10 renal, > 100 µM; in the experiment on UACC-62 melanoma, > 100 µM; in the experiment with UO-31 renal, > 100 µM.

Turning to `O=C(Nc1cc(Nc2ncccc2-c2ncnc3nc[nH]c23)ccc1F)c1cc(C(F)(F)F)cc(C(F)(F)F)c1`, the GI50 with HOP-62 NSCLC is 1.15 µM; in the experiment with HT29 colon it was 0.446 µM; with IGROV1 ovarian, 1.63 µM; in the experiment with KM12 colon it was 1.53 µM; with NCI-H226 lung, 2.74 µM; in the experiment on NCI/ADR-RES ovarian, 2.08 µM. In addition, the GI50 is 2.09 µM with SR leukemia, 3.75 µM in the experiment with TK-10 renal, 0.38 µM in the experiment with UACC-62 melanoma and 0.319 µM in the experiment with UO-31 renal. For the same compound, the TGI was > 10 µM with HOP-62 NSCLC; 4.03 µM in the experiment with HT29 colon; 7.2 µM with IGROV1 ovarian; 4.03 µM in the experiment with KM12 colon; > 10 µM in the experiment with NCI-H226 lung; 7.32 µM with NCI/ADR-RES ovarian. The TGI with SR leukemia was 5.67 µM; in the experiment with TK-10 renal, > 10 µM; with UACC-62 melanoma, 2.32 µM; with UO-31 renal, 1.99 µM.

On to `OC(c1cc(-c2ccc(C(F)(F)F)cc2)nc(C(F)(F)F)c1)C1CCCCN1` (stereo not drawn), for which the GI50 in the experiment on HOP-62 NSCLC is 1.75 µM and 2.13 µM; in the experiment on HT29 colon, 1.65 µM; in the experiment on IGROV1 ovarian it was 2.02 µM; in the experiment on NCI-H226 lung, 1.73 µM and 2.56 µM; in the experiment with NCI/ADR-RES ovarian it was 1.65 µM; with SR leukemia, 0.362 µM. Moreover, the GI50 in the experiment on TK-10 renal is 1.72 µM and 2.16 µM; in the experiment on UO-31 renal, 1.44 µM and 4.96 µM. Moreover, the TGI was 3.18 µM and 4.75 µM with HOP-62 NSCLC; 3.22 µM and 3.87 µM in the experiment on HT29 colon; 3.1 µM and 4.89 µM with IGROV1 ovarian; 3.13 µM and 3.35 µM in the experiment with KM12 colon; 3.21 µM and 6.83 µM in the experiment with NCI-H226 lung; 3.1 µM and 5.99 µM in the experiment on NCI/ADR-RES ovarian. The TGI in the experiment on SR leukemia is 2.17 µM and 4.69 µM; in the experiment on TK-10 renal, 3.23 µM and 4.95 µM; in the experiment with UACC-62 melanoma, 3.02 µM and 3.51 µM; in the experiment on UO-31 renal, 2.85 µM and 18.3 µM.

On to `CC(C)[C@H](O)C(=O)N[C@@H](C)C(=O)N[C@@H]1C(=O)N(C)CCc2ccccc21`, for which the GI50 in the experiment on HOP-62 NSCLC, in the experiment on HT29 colon, with IGROV1 ovarian, in the experiment with KM12 colon, with NCI-H226 lung and in the experiment with NCI/ADR-RES ovarian was > 100 µM each time. Further, the GI50 in the experiment on SR leukemia, in the experiment with TK-10 renal, with UACC-62 melanoma and in the experiment on UO-31 renal was > 100 µM each time. The TGI in the experiment with HOP-62 NSCLC, with HT29 colon, in the experiment on IGROV1 ovarian, in the experiment on KM12 colon, with NCI-H226 lung and in the experiment with NCI/ADR-RES ovarian was > 100 µM each time. The TGI in the experiment on SR leukemia, in the experiment with TK-10 renal, with UACC-62 melanoma and in the experiment on UO-31 renal was > 100 µM each time.

`Nc1ccccc1O.O.O=C(O)C1[O][Sb][O]C1C(=O)O` (stereo not drawn): the GI50 in the experiment with HOP-62 NSCLC is 17.6 µM; in the experiment on HT29 colon, 16.4 µM; in the experiment on IGROV1 ovarian, 17.6 µM; in the experiment with KM12 colon, > 66.2 µM; in the experiment on NCI-H226 lung it was > 100 µM; in the experiment on NCI/ADR-RES ovarian, 28.6 µM. The GI50 in the experiment with SR leukemia is 2.42 µM; with TK-10 renal, 18 µM; in the experiment on UACC-62 melanoma, 15.1 µM; in the experiment on UO-31 renal, 9.34 µM. The TGI in the experiment with HOP-62 NSCLC is 35 µM; in the experiment with HT29 colon it was > 56.2 µM; in the experiment with IGROV1 ovarian it was 33.2 µM; in the experiment with KM12 colon, > 100 µM; in the experiment on NCI-H226 lung it was > 100 µM; in the experiment with NCI/ADR-RES ovarian, > 87.2 µM. Further, the TGI in the experiment on SR leukemia was 50.6 µM; in the experiment with TK-10 renal it was 32.4 µM; with UACC-62 melanoma it was 30.3 µM; with UO-31 renal, 24.5 µM.

With `CN(C)C(=S)SSC(=S)N(C)C`, the GI50 was 18 µM in the experiment with HOP-62 NSCLC; 0.112 µM and 0.29 µM in the experiment with HT29 colon; > 89.9 µM in the experiment on IGROV1 ovarian; 21.4 µM and > 78.4 µM and 38.3 µM with NCI-H226 lung; 16.1 µM and > 100 µM and 26.4 µM in the experiment with TK-10 renal; 15.8 µM in the experiment on UACC-62 melanoma. Further, the GI50 with UO-31 renal is 15 µM. Moreover, the TGI in the experiment on HOP-62 NSCLC is 34.8 µM and > 100 µM; with HT29 colon, > 54.9 µM and 30.7 µM; in the experiment on IGROV1 ovarian it was > 100 µM and 29.3 µM; in the experiment with KM12 colon it was 24.7 µM and 11.1 µM and 45.4 µM; in the experiment with NCI-H226 lung it was 84.6 µM and > 100 µM and > 65.8 µM; in the experiment on NCI/ADR-RES ovarian, 30.4 µM and 36 µM. Moreover, the TGI was 74.6 µM and 27.8 µM and 34.8 µM with SR leukemia; 30.6 µM and > 100 µM and > 70.6 µM in the experiment with TK-10 renal; 32.8 µM and > 41.6 µM and 28.2 µM in the experiment with UACC-62 melanoma; 28.7 µM and > 46.4 µM and 94 µM with UO-31 renal.

As to `c1ccc2c(c1)[nH]c1c2cc[n+]2cc3c(cc12)CCCC3`, the GI50 in the experiment on HOP-62 NSCLC was 3.77 µM; in the experiment with HT29 colon it was 2.4 µM; in the experiment on IGROV1 ovarian, 5.59 µM; in the experiment with KM12 colon, 2.3 µM; in the experiment on NCI/ADR-RES ovarian it was 93.8 µM; with SR leukemia, 2.51 µM. The GI50 in the experiment on UACC-62 melanoma is 2.02 µM; with UO-31 renal it was 14.4 µM. Moreover, the TGI in the experiment with HOP-62 NSCLC is 17 µM and 7.86 µM; in the experiment on HT29 colon it was 9.74 µM and 19.6 µM; with IGROV1 ovarian, 25 µM and 25.5 µM; with KM12 colon, 9.85 µM and 6.53 µM; with NCI-H226 lung it was 7.61 µM and 5.77 µM; in the experiment with NCI/ADR-RES ovarian, > 100 µM. The TGI in the experiment with SR leukemia was 7.52 µM and 4.19 µM; in the experiment with TK-10 renal, 25.6 µM; in the experiment with UACC-62 melanoma, 4.97 µM; with UO-31 renal, 30.7 µM and 33 µM.

With `CC(C)(C)[Si](C)(C)OC1[C@@H](CNC(=O)NC(=O)CCl)O[C@@H](n2cnc3c(N)ncnc32)[C@H]1O[Si](C)(C)C(C)(C)C` (stereo partly drawn), the GI50 is 0.842 µM in the experiment on HOP-62 NSCLC; 0.585 µM in the experiment with HT29 colon; 0.154 µM in the experiment on IGROV1 ovarian; 0.897 µM in the experiment with KM12 colon; 0.956 µM in the experiment with NCI-H226 lung; 1.18 µM with NCI/ADR-RES ovarian. For the same compound, the GI50 in the experiment with SR leukemia was 0.162 µM; with TK-10 renal, 1.39 µM; with UACC-62 melanoma it was 0.877 µM; in the experiment with UO-31 renal, 0.436 µM. The TGI in the experiment with HOP-62 NSCLC worked out at 1.69 µM; in the experiment with HT29 colon, 1.43 µM; in the experiment with IGROV1 ovarian, 0.441 µM; in the experiment with KM12 colon, 1.98 µM; with NCI-H226 lung it was 2 µM; with NCI/ADR-RES ovarian, 3.11 µM. Moreover, the TGI with SR leukemia worked out at 0.562 µM; in the experiment with TK-10 renal it was 3.63 µM; in the experiment with UACC-62 melanoma, 1.74 µM; with UO-31 renal, 1.13 µM.
